In publication PMC2192852 (The Journal of Experimental Medicine, 1996):
Where no end group is shown, it is not given here. [ ]: non-standard residue; d: D form. Abu = CC[C@H](N)C(=O)O

Tested on: 3.L2 TCR
Test: T cell hybridoma agonist assay: IL-2 production by the 3.L2.12 hybridoma
Assay type: cell-based
Conditions: Fig. 6, single agonist assay, representative of at least three experiments

Substance | Concentration at which peptide is active (IL-2 production)
GKKVITAFNEGLK [Hb(64-76), reference compound] | 0.01 µM

Tested on: 3.L2 TCR
Test: not given
Assay type: cell-based
Conditions: Fig. 3; CH27 prepulsed with 0.1 µM Hb(64-76)

Substance | Concentration at which slight inhibition of the 3.L2.12 response was seen
GKKVITAFDEGLK [D72] | > 100 µM
GKKVITAFMEGLK [M72] | > 100 µM
GKKVITAFYEGLK [Y72] | > 100 µM

Tested on: CH27 B cell lymphoma
Test: not given
Assay type: cell-based
Conditions: Fig. 4; from EC40 in apoptosis assay relative to wild-type peptide

Substance | Relative Activity (Hb(64-76) arbitrarily assigned 100)
GKKVITAFCEGLK [C72] | 2
GKKVITAFNEGLK [Hb(64-76), reference compound] | 100
GKKVITAFTEGLK [T72] | 2
GKKVITAFVEGLK [V72] | 2
GKKVITAF[Abu]EGLK [Abu72] | 5

Same assay, conditions: Fig. 5; 3.L2 clone, 24 h

Substance | Induction of apoptosis of CH27
GKKVITAFEEGLK [E72] | negative
GKKVITAFGEGLK [G72] | did not induce any apoptosis
GKKVITAFLEGLK [L72] | did not induce any apoptosis
GKKVITAFSEGLK [$72] | did not induce any apoptosis
